The supplement of paper PMC11451515

Test system: SEM cells
Assay: cell viability relative to DMSO control; higher = less cytotoxic
Conditions: 48 h
Method in brief: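 NOMO1, SEM and P12-Ichikawa leukemia cells spent at least four passages adapting to each medium before use. They were seeded at 500 cells/well (NOMO1, SEM) or 1000 cells/well (P12-Ichikawa) in 5 μl in 1536-well plates and pin-dosed with library compounds in DMSO at 11 threefold steps from 47 μM down to 0.79 nM. After 48 h at 37°C, CellTiter-Glo One luminescence was read. Viability is reported as a percentage of the DMSO wells on each plate, with cell-free wells as background.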

[1] = HPLM + 10% dialyzed FBS, 0.000781 µM
[2] = HPLM + 10% dialyzed FBS, 0.00234 µM
[3] = HPLM + 10% dialyzed FBS, 0.00702 µM
[4] = HPLM + 10% dialyzed FBS, 0.0211 µM
[5] = HPLM + 10% dialyzed FBS, 0.0632 µM
[6] = HPLM + 10% dialyzed FBS, 0.19 µM
[7] = HPLM + 10% dialyzed FBS, 0.569 µM
[8] = HPLM + 10% dialyzed FBS, 1.71 µM
[9] = HPLM + 10% dialyzed FBS, 5.12 µM
[10] = HPLM + 10% dialyzed FBS, 15.4 µM
[11] = HPLM + 10% dialyzed FBS, 46.1 µM
[12] = RPMI 5 mM glucose + 10% FBS, 0.000781 µM
[13] = RPMI 5 mM glucose + 10% FBS, 0.00234 µM
[14] = RPMI 5 mM glucose + 10% FBS, 0.00702 µM
[15] = RPMI 5 mM glucose + 10% FBS, 0.0211 µM
[16] = RPMI 5 mM glucose + 10% FBS, 0.0632 µM
[17] = RPMI 5 mM glucose + 10% FBS, 0.19 µM
[18] = RPMI 5 mM glucose + 10% FBS, 0.569 µM
[19] = RPMI 5 mM glucose + 10% FBS, 1.71 µM
[20] = RPMI 5 mM glucose + 10% FBS, 5.12 µM
[21] = RPMI 5 mM glucose + 10% FBS, 15.4 µM
[22] = RPMI 5 mM glucose + 10% FBS, 46.1 µM
[23] = RPMI 5 mM glucose + 10% dialyzed FBS, 0.000781 µM
[24] = RPMI 5 mM glucose + 10% dialyzed FBS, 0.00234 µM
[25] = RPMI 5 mM glucose + 10% dialyzed FBS, 0.00702 µM
[26] = RPMI 5 mM glucose + 10% dialyzed FBS, 0.0211 µM
[27] = RPMI 5 mM glucose + 10% dialyzed FBS, 0.0632 µM
[28] = RPMI 5 mM glucose + 10% dialyzed FBS, 0.19 µM
[29] = RPMI 5 mM glucose + 10% dialyzed FBS, 0.569 µM
[30] = RPMI 5 mM glucose + 10% dialyzed FBS, 1.71 µM
[31] = RPMI 5 mM glucose + 10% dialyzed FBS, 5.12 µM
[32] = RPMI 5 mM glucose + 10% dialyzed FBS, 15.4 µM
[33] = RPMI 5 mM glucose + 10% dialyzed FBS, 46.1 µM

SMILES	cell viability [1] [%]	cell viability [2] [%]	cell viability [3] [%]	cell viability [4] [%]	cell viability [5] [%]	cell viability [6] [%]	cell viability [7] [%]	cell viability [8] [%]	cell viability [9] [%]	cell viability [10] [%]	cell viability [11] [%]	cell viability [12] [%]	cell viability [13] [%]	cell viability [14] [%]	cell viability [15] [%]	cell viability [16] [%]	cell viability [17] [%]	cell viability [18] [%]	cell viability [19] [%]	cell viability [20] [%]	cell viability [21] [%]	cell viability [22] [%]	cell viability [23] [%]	cell viability [24] [%]	cell viability [25] [%]	cell viability [26] [%]	cell viability [27] [%]	cell viability [28] [%]	cell viability [29] [%]	cell viability [30] [%]	cell viability [31] [%]	cell viability [32] [%]	cell viability [33] [%]
CCOC(=O)c1c(/C(C#N)=C\N)c2ccc(Cl)c(Cl)c2n1C	85.8	86.1	85.2	96.9	76.5	94.1	95.5	81.7	92.6	83.4	57.4	86.7	99.2	89.9	94.1	84.6	89.7	97.8	94.4	89.6	84	62	80	97.7	81.8	87.8	71.6	89.3	102	84.4	94.8	75.2	76.9
COc1cc([C@@H]2c3cc4c(cc3[C@@H](O)C3COC(=O)C32)OCO4)cc(OC)c1O (stereo partly drawn)	73.2	86.7	86	21.1	84.4	46.9	22.2	24.3	16.6	11.3	9.58	96.4	83.3	101	13.1	104	47.6	19.7	14.7	9.69	4.01	4.26	78.6	70.2	98.2	16.1	82.9	52.8	19	19.5	11.8	7.08	4.88
NNC(=O)c1ccncc1	84.6	79.5	73.6	92.9	93.8	86.6	29.2	42.5	95.7	92.3	82.4	107	98.6	97.2	98.7	116	115	37.3	46.7	91.6	94.9	87.6	107	110	92.4	97.2	98.1	105	37.2	34.9	101	95.6	82.8
CC=CC1=C(C(=O)O)N2C(=O)[C@@H](NC(=O)[C@H](N)c3ccc(O)cc3)[C@H]2SC1.O	71.1	70.5	79.2	92.5	91.4	81.3	90.1	83.9	72.8	91.6	82.1	86.4	96.4	93.8	97.7	90.9	92.9	98.8	115	86.6	105	94.6	84.8	97	98.4	115	109	86.1	110	110	84.7	112	114
COc1cc([S+](C)(=O)[O-])ccc1Nc1nc2ccc(-c3ccc(NC(=O)[C@H](C)c4ccc(F)cc4)cc3)cn2n1	90.4	87.8	102	89.2	107	102	94.8	41.9	52.1	52.3	43.1	98	117	92.3	86.1	124	108	104	41.2	41.4	34.6	31	88.4	112	108	90.4	136	99.1	98.1	53.9	50	48.2	43
Cc1cc(-c2ccc(CC(=O)Nc3ccc(-c4cccnc4)cc3)cc2)ccn1	115	112	123	118	118	119	123	87.8	80.8	12.7	18.4	101	123	131	133	124	129	131	112	123	24.5	15.5	113	113	126	106	110	124	128	112	104	21.7	16
CCc1nc(C(N)=O)c(Nc2ccc(N3CCC(N4CCN(C)CC4)CC3)c(OC)c2)nc1NC1CCOCC1	92.9	105	120	104	95.5	65	42.9	36.3	21.1	17.8	14.6	–	–	–	–	–	–	–	–	–	–	–	115	97.9	138	139	94	69.6	43	33.1	17	18.3	12.2
O=C(O)c1nn(Cc2ccc(Cl)cc2Cl)c2ccccc12	93.5	90.1	95.5	96.3	86.5	54.8	68.7	92.3	84.7	76.2	54.7	124	123	132	130	93.3	83.6	86.2	135	95.2	94.7	81	96.1	89.9	89.1	77.2	76.3	46.9	69	97.5	70.1	92.7	59.6
